Reference: US20080161407A1, “METHODS FOR TREATING METABOLIC SYNDROME” (Abbott Laboratories, priority 2003, published 2008)
Like-named read-outs stand apart in the source and are kept apart here.

How the values were obtained:
[1] = cited from earlier work
[2] = STORM trial, subjects that had metabolic syndrome at study entry; type: in vivo, human; conditions: change from baseline to latest assessment after month 6 up to month 12
Description: (§1) The benefits of sibutramine therapy can be extended to subjects with metabolic syndrome. The treatment effect of sibutramine on subjects that had metabolic syndrome at study entry in the STORM trial and by a pooled analysis of double-blind, placebo-controlled, non-diabetic studies of at least 6 months duration were studied. Subjects were identified who had increased abdominal obesity (waist circumference), decreased HDL cholesterol, and elevated triglycerides (TG) at baseline, and who also completed at least 6 months of sibutramine treatment (pooled analysis subjects: 266 sibutramine, 134 placebo; STORM: 80 sibutramine). Since all subjects in the STORM trial received sibutramine for the first 6 months of the study, only subjects subsequently randomized to receive sibutramine for a longer duration were included. The analyses for each variable were based on change from baseline to latest assessment after month 6, up to and including month 12.

[3] = Pooled analysis of double-blind, placebo-controlled, non-diabetic studies of at least 6 months in subjects with metabolic syndrome at baseline; type: in vivo, human; conditions: change from baseline to latest assessment after month 6 up to month 12; compared to placebo
Description: as §1

[4] = compared to placebo; cited from earlier work
[5] = subjects who lost and maintained weight, compared to baseline values of all subjects

CC(C)CC(N(C)C)C1(c2ccc(Cl)cc2)CCC1 (centres unmarked) [sibutramine, N,N-dimethyl-1-[1-(4-chlorophenyl)cyclobutyl]-3-methylbutylamine]
subjects who maintained at least 80% of their month six weight loss ([1]; at two years, subjects who completed the trial, placebo 16%): 43%
mean fasting insulin levels ([1]; at two years): reduced
subjects who maintained ≧10% weight reduction ([1]; end of two years of treatment, placebo 21%): 46%
subjects who maintained ≧5% weight reduction ([1]; end of two years of treatment, placebo 44%): 69%
mean weight loss ([1]; first six months of sibutramine treatment): 26 lbs
subjects who achieved a ≧5% weight reduction ([1]; of the 499 subjects who completed the first six months, sibutramine with reduced calorie diet and increased physical activity): 94%
HDL cholesterol [1, 5]: clinically and statistically significant improvements
triglycerides [1, 5]: clinically and statistically significant improvements
waist circumference [1, 5]: clinically and statistically significant improvements
impaired fasting glucose ([1]; subjects who lost and maintained weight): significantly changed
HDL [2]: favorable changes
TG [2]: favorable changes
waist circumference [2]: favorable changes
weight loss [2]: favorable changes
HDL [3]: clinically and statistically significant improvements
TG [3]: clinically and statistically significant improvements
waist circumference [3]: clinically and statistically significant improvements
weight loss [3]: clinically and statistically significant improvements
HDL cholesterol [4]: significant improvements
fasting blood glucose levels [4]: not significantly changed
insulin levels [4]: significant improvements
triglyceride levels [4]: significant improvements
waist circumference (a measure for abdominal obesity) [4]: significant improvements
